Legend:
Format in all cases: cell-based
[1] = target: T1, ABCB4 WT (Homo sapiens, UniProt P21439); assay: ABCB4 WT assay: HiBit protein expression; conditions: HEK-293 cells stably expressing HiBit-tagged ABCB4 WT; 24 h treatment; top concentration 30 μM; read-out: ABCB4 WT EC50, Emax
T1 construct: expressed in transfected cells
Description: To assess activity against ABCB4, compounds were screened in an assay measuring protein expression, using cells transfected with cDNA encoding HiBit-tagged ABCB4 wild-type.
Described here is an assay for measuring the expression of the wild type of human ABCB4 (henceforth referred to as ABCB4 WT) and the use of this assay to measure the efficacy of compounds to increase the expression of ABCB4 WT. The assay was designed to characterize the efficacy and potency of compounds to increase the expression of ABCB4 WT by calculating an Emax and EC50 value. HEK-293 cells stably expressing ABCB4 WT (HEK-293/ABCB4 WT) were used for this assay and were maintained at 37° C. (5% CO2, humidified) in Dulbecco's Modified Eagle Medium (DMEM, Gibco product #12100) supplemented with 10% fetal bovine serum (Biosera product #FB-1058/500), 1% PenStrep (HDB product #15140-122), and 0.5 mg/mL puromycin (Gibco product #A11138-03). For the assay, the HEK-293/ABCB4 WT cells were seeded in white/opaque 384-well plates (Corning product #3570) at 10,000 cells/well in 20 μl growth medium and allowed to settle for 4 hours at 37° C. (5% CO2, humidified). Compound serial dilutions are prepared in DMSO as three hundred times (333×) the final concentration and using a dilution factor of 3 using Bravo (Agilent). After the four-hour incubation period, 60 nL of DMSO solutions are transferred to the assay plate.
(§1) Dose response curves include eleven doses with the top final concentration at 30 μM in 0.3% DMSO. Liquid handling is performed with ECHO 550 Acoustic Liquid Handler (Labcyte). After addition of compound treatment, cells are incubated for 24 hours at 37° C. (5% CO2, humidified). After the 24-hour treatment, plates are allowed to equilibrate to room temperature for 10 minutes. Using Dragonfly Automated Liquid Handler (TTP LabTech), 20 μl of HiBit lytic assay reagent (Promega, product #N3040), which is prepared according to manufacturer's instructions, is added to each well. The plates are rotated at room temperature for 2 minutes and incubated for 1 hour at 25° C. before luminescent signal is acquired using an EnVision Multimode Plate Reader (PerkinElmer).
Results are presented below in Table 5 for ABCB4 WT.

[2] = target: T2, ABCA4 P1380L (Homo sapiens, UniProt P78363, P1380L); assay: A4 correction dose-response assay: ABCA4 P1380L HiBit protein expression; conditions: HEK-293 cells stably expressing HiBit-tagged ABCA4 P1380L; 24 h treatment; top concentration 30 μM; read-out: ABCA4 P1380L EC50, Emax
T2 construct: expressed in transfected cells
T2 sequence (P78363 whole entry P1380L): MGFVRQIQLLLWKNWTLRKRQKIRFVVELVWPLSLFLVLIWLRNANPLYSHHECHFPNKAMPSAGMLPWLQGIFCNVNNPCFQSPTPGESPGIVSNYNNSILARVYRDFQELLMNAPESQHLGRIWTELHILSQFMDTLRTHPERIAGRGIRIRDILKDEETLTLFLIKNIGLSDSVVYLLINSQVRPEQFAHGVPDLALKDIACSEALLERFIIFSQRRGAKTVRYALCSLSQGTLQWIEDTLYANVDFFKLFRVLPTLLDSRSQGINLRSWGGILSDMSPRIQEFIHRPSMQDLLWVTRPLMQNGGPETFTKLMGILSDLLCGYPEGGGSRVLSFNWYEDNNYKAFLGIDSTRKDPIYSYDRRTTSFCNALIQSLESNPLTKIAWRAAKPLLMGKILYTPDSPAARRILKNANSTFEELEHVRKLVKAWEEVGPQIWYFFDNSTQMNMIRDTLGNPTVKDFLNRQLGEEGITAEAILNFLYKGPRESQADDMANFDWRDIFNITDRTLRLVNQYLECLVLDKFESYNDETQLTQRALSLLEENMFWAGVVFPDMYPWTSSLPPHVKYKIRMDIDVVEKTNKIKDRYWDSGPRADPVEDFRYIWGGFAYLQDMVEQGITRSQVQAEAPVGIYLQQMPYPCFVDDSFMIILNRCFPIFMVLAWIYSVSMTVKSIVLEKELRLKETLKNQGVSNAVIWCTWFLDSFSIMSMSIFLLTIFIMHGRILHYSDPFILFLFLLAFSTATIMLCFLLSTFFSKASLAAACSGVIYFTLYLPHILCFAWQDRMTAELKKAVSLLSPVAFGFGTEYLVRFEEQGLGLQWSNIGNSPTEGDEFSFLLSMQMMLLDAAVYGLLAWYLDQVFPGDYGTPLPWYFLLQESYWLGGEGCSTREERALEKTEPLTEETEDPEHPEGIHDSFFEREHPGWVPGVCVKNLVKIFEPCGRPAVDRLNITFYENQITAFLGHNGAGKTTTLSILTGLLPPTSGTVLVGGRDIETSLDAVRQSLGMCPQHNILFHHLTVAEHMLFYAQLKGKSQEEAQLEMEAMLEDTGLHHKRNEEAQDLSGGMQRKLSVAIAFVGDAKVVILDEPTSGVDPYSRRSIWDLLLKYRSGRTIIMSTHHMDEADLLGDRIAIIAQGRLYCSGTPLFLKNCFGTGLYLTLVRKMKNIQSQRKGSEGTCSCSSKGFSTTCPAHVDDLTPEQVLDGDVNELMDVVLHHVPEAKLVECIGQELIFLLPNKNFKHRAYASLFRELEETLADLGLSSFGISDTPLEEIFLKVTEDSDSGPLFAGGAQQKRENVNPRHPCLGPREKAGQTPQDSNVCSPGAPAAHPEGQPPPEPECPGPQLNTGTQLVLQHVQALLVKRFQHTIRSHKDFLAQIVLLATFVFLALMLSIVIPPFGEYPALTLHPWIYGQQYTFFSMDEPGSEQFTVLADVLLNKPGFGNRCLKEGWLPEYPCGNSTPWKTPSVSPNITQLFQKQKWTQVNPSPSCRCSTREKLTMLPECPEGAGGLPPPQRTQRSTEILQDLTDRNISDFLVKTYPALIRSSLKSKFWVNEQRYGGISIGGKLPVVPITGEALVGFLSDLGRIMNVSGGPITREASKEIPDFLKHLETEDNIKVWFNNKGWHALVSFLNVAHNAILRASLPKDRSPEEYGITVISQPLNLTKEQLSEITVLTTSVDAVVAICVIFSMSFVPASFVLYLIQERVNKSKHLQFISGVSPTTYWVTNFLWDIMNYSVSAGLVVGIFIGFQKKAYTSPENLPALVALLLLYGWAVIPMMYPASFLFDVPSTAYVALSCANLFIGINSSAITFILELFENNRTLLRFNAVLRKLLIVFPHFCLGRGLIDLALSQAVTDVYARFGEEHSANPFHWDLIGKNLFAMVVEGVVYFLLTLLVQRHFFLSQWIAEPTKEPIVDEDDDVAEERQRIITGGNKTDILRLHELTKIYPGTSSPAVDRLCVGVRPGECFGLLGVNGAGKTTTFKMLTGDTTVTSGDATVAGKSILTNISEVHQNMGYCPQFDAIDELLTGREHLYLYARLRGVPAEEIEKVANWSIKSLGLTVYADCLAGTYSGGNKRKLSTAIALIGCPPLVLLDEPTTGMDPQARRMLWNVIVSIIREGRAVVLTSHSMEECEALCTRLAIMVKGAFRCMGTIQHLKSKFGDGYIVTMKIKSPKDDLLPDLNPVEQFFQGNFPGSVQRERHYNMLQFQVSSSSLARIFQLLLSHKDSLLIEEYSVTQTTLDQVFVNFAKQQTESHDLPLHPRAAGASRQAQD
Procedure: Exemplary compounds were evaluated in an A4 correction dose-response assay.
To assess activity against ABCA4 P1380L, the compounds were screened in an assay measuring protein expression, using cells transfected with cDNA encoding HiBit-tagged ABCA4 P1380L. Here we describe an assay for measuring the expression of the P1380L variant of human ABCA4 (henceforth referred to as ABCA4 P1380L) and the use of this assay to measure the efficacy of compounds to increase the expression of ABCA4 P1380L. The assay was designed to characterize the efficacy and potency of compounds to increase the expression of ABCA4 P1380L by calculating an Emax and EC50 value. […] (5% CO2, humidified). […] After the four-hour incubation period, 60 nL of DMSO solutions are transferred to the assay plate.
as §1

[3] = target: T3, ABCC6 WT (Homo sapiens, UniProt O95255); assay: ABCC6 WT assay: HiBit protein expression; conditions: HEK-293 cells transiently expressing HiBit-tagged ABCC6 WT; 24 h treatment; top concentration 20 μM; read-out: ABCC6 WT EC50, Emax
T3 construct: expressed in transfected cells; host or cells: HEK-293 (transient, Lipofectamine 2000)
T3 sequence (O95255 whole entry): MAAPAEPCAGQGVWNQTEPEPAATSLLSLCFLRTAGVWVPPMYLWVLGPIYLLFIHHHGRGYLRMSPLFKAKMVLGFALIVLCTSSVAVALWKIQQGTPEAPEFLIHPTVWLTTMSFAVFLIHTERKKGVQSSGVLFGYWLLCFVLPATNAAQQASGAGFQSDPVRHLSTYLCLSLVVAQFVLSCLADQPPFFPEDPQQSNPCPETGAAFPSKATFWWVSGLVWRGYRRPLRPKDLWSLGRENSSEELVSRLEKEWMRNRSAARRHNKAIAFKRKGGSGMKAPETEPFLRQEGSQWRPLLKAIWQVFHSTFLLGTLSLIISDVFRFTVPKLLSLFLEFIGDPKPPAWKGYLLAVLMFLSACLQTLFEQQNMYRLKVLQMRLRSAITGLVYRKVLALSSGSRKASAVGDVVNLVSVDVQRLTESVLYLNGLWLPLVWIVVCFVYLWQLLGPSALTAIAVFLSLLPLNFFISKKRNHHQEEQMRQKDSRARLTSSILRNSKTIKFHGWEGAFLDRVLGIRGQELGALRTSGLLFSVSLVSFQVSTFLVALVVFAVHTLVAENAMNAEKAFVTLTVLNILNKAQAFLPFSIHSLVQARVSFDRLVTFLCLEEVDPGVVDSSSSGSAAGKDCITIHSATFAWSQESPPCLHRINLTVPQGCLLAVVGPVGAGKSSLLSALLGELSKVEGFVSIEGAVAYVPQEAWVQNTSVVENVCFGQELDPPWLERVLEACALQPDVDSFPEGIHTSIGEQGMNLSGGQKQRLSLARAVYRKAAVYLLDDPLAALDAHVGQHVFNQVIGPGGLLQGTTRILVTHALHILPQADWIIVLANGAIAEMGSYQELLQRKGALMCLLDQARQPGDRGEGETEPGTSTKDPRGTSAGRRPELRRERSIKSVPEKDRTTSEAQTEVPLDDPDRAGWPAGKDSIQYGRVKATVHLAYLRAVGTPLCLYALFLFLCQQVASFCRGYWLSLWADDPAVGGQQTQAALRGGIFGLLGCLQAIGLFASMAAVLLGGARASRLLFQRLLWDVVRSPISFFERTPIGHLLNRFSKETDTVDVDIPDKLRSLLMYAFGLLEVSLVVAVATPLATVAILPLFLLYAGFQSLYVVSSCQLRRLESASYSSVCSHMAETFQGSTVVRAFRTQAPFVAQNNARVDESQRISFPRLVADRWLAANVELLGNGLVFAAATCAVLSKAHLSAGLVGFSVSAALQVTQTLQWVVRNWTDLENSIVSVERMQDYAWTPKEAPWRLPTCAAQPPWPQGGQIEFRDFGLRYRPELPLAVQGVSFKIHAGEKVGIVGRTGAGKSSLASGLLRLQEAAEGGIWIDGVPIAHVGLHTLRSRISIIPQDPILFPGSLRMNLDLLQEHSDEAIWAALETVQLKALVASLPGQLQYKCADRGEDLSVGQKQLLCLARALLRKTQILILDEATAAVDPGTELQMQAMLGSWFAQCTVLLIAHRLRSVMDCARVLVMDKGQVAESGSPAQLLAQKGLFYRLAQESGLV
Description: To assess activity against ABCC6, compounds were screened in an assay measuring protein expression, using cells transfected with cDNA encoding HiBit-tagged ABCC6 wild-type.
Described here is an assay for measuring the expression of the wild type of human ABCC6 (henceforth referred to as ABCC6 WT) and the use of this assay to measure the efficacy of compounds to increase the expression of ABCC6 WT. The assay was designed to characterize the efficacy and potency of compounds to increase the expression of ABCC6 WT by calculating an Emax and EC50 value. HEK-293 cells transiently expressing ABCC6 WT (HEK-293/ACC6 WT) were used for this assay and were cultured at 37° C. (5% CO2, humidified) in Dulbecco's Modified Eagle Medium (DMEM, Gibco product #11965-092) supplemented with 10% fetal bovine serum. For the assay, HEK-293 cells were transfected with […]/10 cm plate of cDNA encoding HiBit-tagged ABCC6 wild-type using Lipofectamine 2000 (Thermo Fisher, product #11668019). Twenty-four hours after transfection, the HEK-293/ACC6 WT cells were seeded in white/opaque 384-well plates (PerkinElmer, cat. No. 6007688) at 10,000 cells/well in 20 μl growth medium and allowed to settle for 4 hours at 37° C. (5% CO2, humidified). Compound serial dilutions are prepared in growth medium as ten times (10×) the final concentration and using a dilution factor of 2. After the four-hour incubation period, 2.2 μL of the 10× dilutions are transferred to the assay plate.
Dose response curves include ten doses with the top final concentration at 20 μM in 0.15% DMSO. Liquid handling is performed with an Integra mini96-tip head (INTEGRA). After addition of compound treatment, cells are incubated for 24 hours at 37° C. (5% CO2, humidified). After the 24-hour treatment, plates are allowed to equilibrate for 15 minutes at room temperature. Using Integra mini-96, 20 μl of HiBit lytic assay reagent (Promega, product #N3040), which is prepared according to manufacturer's instructions, is added to each well. The plates are rotated at room temperature for 10 minutes and luminescent signal is acquired using an EnVision Multimode Plate Reader (PerkinElmer).
Results are presented below in Table 4 for ABCC6 WT.

T1 sequence (P21439 whole entry): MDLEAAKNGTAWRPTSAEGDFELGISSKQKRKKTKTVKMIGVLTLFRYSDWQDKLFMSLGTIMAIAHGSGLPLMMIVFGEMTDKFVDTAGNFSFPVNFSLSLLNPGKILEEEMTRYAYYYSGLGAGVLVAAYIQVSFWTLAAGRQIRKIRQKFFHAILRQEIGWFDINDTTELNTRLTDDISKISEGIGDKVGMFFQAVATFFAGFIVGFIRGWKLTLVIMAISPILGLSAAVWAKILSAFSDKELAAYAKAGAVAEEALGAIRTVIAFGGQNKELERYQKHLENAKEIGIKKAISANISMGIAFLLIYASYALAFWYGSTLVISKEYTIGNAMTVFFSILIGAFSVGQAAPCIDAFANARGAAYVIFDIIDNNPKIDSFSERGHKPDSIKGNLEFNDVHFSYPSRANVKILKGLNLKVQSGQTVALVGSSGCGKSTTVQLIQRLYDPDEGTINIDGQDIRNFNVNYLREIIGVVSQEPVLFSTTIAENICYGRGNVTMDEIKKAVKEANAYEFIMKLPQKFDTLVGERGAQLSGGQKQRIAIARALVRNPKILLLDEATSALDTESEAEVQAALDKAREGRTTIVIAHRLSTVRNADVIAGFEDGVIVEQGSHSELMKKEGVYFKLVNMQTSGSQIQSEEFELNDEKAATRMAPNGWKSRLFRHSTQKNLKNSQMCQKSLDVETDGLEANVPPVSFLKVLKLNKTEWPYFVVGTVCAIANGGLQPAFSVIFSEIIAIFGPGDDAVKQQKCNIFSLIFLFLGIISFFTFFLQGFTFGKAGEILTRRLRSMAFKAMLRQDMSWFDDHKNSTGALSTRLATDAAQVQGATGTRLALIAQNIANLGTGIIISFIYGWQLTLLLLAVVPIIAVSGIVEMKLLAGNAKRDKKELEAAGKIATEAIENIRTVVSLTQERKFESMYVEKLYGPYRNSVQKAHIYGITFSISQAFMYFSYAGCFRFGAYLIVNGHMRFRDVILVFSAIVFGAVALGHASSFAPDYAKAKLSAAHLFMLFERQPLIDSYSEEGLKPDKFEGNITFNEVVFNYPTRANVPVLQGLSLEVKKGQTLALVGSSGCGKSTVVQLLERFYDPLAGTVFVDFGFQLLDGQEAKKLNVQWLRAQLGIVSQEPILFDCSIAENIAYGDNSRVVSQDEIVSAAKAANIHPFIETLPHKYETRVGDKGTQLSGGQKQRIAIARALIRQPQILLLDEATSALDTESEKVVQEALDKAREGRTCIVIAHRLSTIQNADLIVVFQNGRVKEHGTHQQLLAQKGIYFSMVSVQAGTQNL

Cc1cc(C2CC2)nc(C)c1Oc1nc(-c2cncc(C#N)c2)ccc1NS(C)(=O)=O [Compound I-4]
EC50 [1]: < 1000 nM
EC50 [2]: < 1000 nM
EC50 [3]: < 1000 nM

Cc1cc(C)c(Oc2nc(-c3cncc(C#N)c3)ccc2NS(C)(=O)=O)c(C)n1 [Compound I-5]
EC50 [1]: < 1000 nM
EC50 [2]: < 1000 nM
EC50 [3]: < 1000 nM

Cc1cc(C)c(Oc2nc(-c3ccc(C#N)nc3C)ccc2NS(C)(=O)=O)c(C)c1 [Compound I-6]
EC50 [1]: ≥ 25000 nM
EC50 [2]: 10000 to 25000 nM
EC50 [3]: < 1000 nM

Cc1cc(C)c(Oc2nc(-c3ccc(C#N)nc3)ccc2NS(C)(=O)=O)c(C)n1 [Compound I-7]
EC50 [1]: < 1000 nM
EC50 [2]: < 1000 nM
EC50 [3]: < 1000 nM

Cc1cc(C)c(Oc2nc(-c3cnc(C#N)c(Cl)c3)ccc2NS(C)(=O)=O)c(C)n1 [Compound I-8]
EC50 [1]: < 1000 nM
EC50 [2]: < 1000 nM
EC50 [3]: < 1000 nM

Cc1cc(C)c(Oc2nc(-c3cncc(Cl)c3)ncc2NS(C)(=O)=O)c(C)c1 [Compound I-9]
EC50 [1]: ≥ 25000 nM
EC50 [2]: > 25000 nM
EC50 [3]: < 1000 nM

Cc1cc(C)c(Oc2nc(-c3cncc(C#N)c3)ncc2NS(C)(=O)=O)c(C)c1 [Compound I-10]
EC50 [1]: ≥ 25000 nM
EC50 [2]: < 1000 nM
EC50 [3]: < 1000 nM

CNS(=O)(=O)c1ccc(-c2cncc(Cl)c2)nc1Oc1c(C)cc(C)cc1C [Compound I-95]
EC50 [1]: < 1000 nM
EC50 [2]: < 1000 nM
EC50 [3]: < 1000 nM

Cc1cc(C)c(Oc2nc(-c3cncc(Cl)c3)ccc2S(=O)(=O)N2CCCC2)c(C)c1 [Compound I-96]
EC50 [1]: 1000 to 10000 nM
EC50 [2]: > 25000 nM
EC50 [3]: 1000 to 10000 nM

Cc1cc(C)c(Oc2nc(-c3cncc(Cl)c3)ccc2S(=O)(=O)N(C)C)c(C)c1 [Compound I-97]
EC50 [1]: 1000 to 10000 nM
EC50 [2]: > 25000 nM
EC50 [3]: < 1000 nM

Cc1cc(C)c(Oc2nc(-c3cncc(Cl)c3)ccc2S(=O)(=O)NC2CC2)c(C)c1 [Compound I-98]
EC50 [1]: < 25000 nM
EC50 [2]: > 25000 nM
EC50 [3]: < 1000 nM

Cc1cc(C)c(Oc2nc(-c3cncc(Cl)c3)ccc2S(=O)(=O)NC(C)(C)C)c(C)c1 [Compound I-99]
EC50 [1]: ≥ 25000 nM
EC50 [2]: > 25000 nM
EC50 [3]: 1000 to 10000 nM

Cc1cc(C)c(Oc2nc(-c3cncc(Cl)c3)ccc2S(N)(=O)=O)c(C)c1 [Compound I-100]
EC50 [1]: ≥ 25000 nM
EC50 [2]: 10000 to 25000 nM
EC50 [3]: < 1000 nM

Cc1cc(C)c(Oc2nc(-c3cccc(Cl)c3)ccc2S(=O)(=O)NC2CCOC2)c(C)c1 (stereo not drawn) [Compound I-101]
EC50 [1]: ≥ 25000 nM
EC50 [2]: 1000 to 10000 nM
EC50 [3]: 1000 to 10000 nM

Cc1cc(C)c(Oc2nc(-c3cccc(Cl)c3)ccc2S(N)(=O)=O)c(C)c1 [Compound I-102]
EC50 [1]: ≥ 25000 nM
EC50 [2]: < 1000 nM
EC50 [3]: 1000 to 10000 nM

Cc1cc(C)c(Oc2nc(-c3cncc(Cl)c3)ccc2S(C)(=N)=O)c(C)c1 (stereo not drawn) [Compound I-103]
EC50 [1]: < 1000 nM
EC50 [2]: 1000 to 10000 nM
EC50 [3]: < 1000 nM

Cc1cc(C)c(Oc2nc(-c3cncc(Cl)c3)ccc2S(C)(=O)=O)c(C)c1 [Compound I-104]
EC50 [1]: 1000 to 10000 nM
EC50 [2]: 1000 to 10000 nM
EC50 [3]: 1000 to 10000 nM

Cc1cc(C(F)(F)F)nc(C2CC2)c1Oc1nc(-c2cncc(C#N)c2)ccc1S(=O)(=O)NC1CC1 [Compound I-133]
EC50 [1]: 1000 to 10000 nM
EC50 [2]: < 1000 nM
EC50 [3]: < 1000 nM

Cc1cc(C(F)F)nc(C2CC2)c1Oc1nc(-c2cncc(C#N)c2)ccc1N(C)S(=O)(=O)C1CC1 [Compound I-134]
EC50 [1]: < 1000 nM
EC50 [2]: > 25000 nM
EC50 [3]: 1000 to 10000 nM

Cc1cc(C(F)F)nc(C2CC2)c1Oc1nc(-c2cncc(C#N)c2)ccc1N(C)S(C)(=O)=O [Compound I-135]
EC50 [1]: < 1000 nM
EC50 [2]: > 25000 nM
EC50 [3]: 1000 to 10000 nM

Cc1cc(C)c(Oc2nc(-c3cncc(C#N)c3)ccc2N(C)S(=O)(=O)c2cccnc2)c(C2CC2)n1 [Compound I-136]
EC50 [1]: < 1000 nM
EC50 [2]: 1000 to 10000 nM
EC50 [3]: 1000 to 10000 nM

Cc1cc(C(F)F)nc(C2CC2)c1Oc1nc(-c2cncc(C#N)c2)ccc1NS(C)(=O)=O [Compound I-137]
EC50 [1]: < 1000 nM
EC50 [2]: < 1000 nM
EC50 [3]: < 1000 nM

CS(=O)(=O)Nc1ccc(-c2cncc(C#N)c2)nc1Oc1c(C2CC2)nc(C(F)(F)F)nc1C1CC1 [Compound I-138]
EC50 [1]: < 1000 nM
EC50 [2]: < 1000 nM
EC50 [3]: < 1000 nM

Cc1cc(C(F)(F)F)nc(C2CC2)c1Oc1nc(-c2cncc(C#N)c2)ccc1N(C)S(=O)(=O)C1CC1 [Compound I-139]
EC50 [1]: < 1000 nM
EC50 [2]: > 25000 nM
EC50 [3]: < 1000 nM

Cc1cc(C(F)(F)F)nc(C2CC2)c1Oc1nc(-c2cncc(C#N)c2)ccc1NS(=O)(=O)C1CC1 [Compound I-140]
EC50 [1]: < 1000 nM
EC50 [2]: < 1000 nM
EC50 [3]: < 1000 nM

Cc1cc(C(F)(F)F)nc(C2CC2)c1Oc1nc(-c2cncc(C#N)c2)ccc1NS(=O)(=O)C(C)C [Compound I-141]
EC50 [1]: < 1000 nM
EC50 [2]: < 1000 nM
EC50 [3]: < 1000 nM

Cc1nc(C(F)(F)F)nc(C2CC2)c1Oc1nc(-c2cncc(C#N)c2)ccc1N(C)S(C)(=O)=O [Compound I-142]
EC50 [1]: ≥ 25000 nM
EC50 [2]: > 25000 nM
EC50 [3]: ≥ 25000 nM

Cc1nc(C2COC2)nc(C2CC2)c1Oc1nc(-c2cncc(C#N)c2)ccc1NS(C)(=O)=O [Compound I-143]
EC50 [1]: < 1000 nM
EC50 [2]: < 1000 nM
EC50 [3]: < 1000 nM

Cc1nc(C(F)F)nc(C2CC2)c1Oc1nc(-c2cncc(C#N)c2)ccc1NS(C)(=O)=O [Compound I-144]
EC50 [1]: < 1000 nM
EC50 [2]: < 1000 nM
EC50 [3]: < 1000 nM

Cc1nc(C(F)(F)F)nc(C2CC2)c1Oc1nc(-c2cncc(C#N)c2)ccc1NS(C)(=O)=O [Compound I-145]
EC50 [1]: < 1000 nM
EC50 [2]: < 1000 nM
EC50 [3]: < 1000 nM

Cc1cc(C2CC2)nc(C2CC2)c1Oc1nc(-c2cncc(C#N)c2)ccc1N(C)S(C)(=O)=O [Compound I-146]
EC50 [1]: ≥ 25000 nM
EC50 [2]: 1000 to 10000 nM
EC50 [3]: ≥ 25000 nM

Cc1cc(C)c(Oc2nc(-c3cncc(C#N)c3)ccc2NS(=O)(=O)c2cccnc2)c(C2CC2)n1 [Compound I-147]
EC50 [1]: < 25000 nM
EC50 [2]: < 1000 nM
EC50 [3]: < 1000 nM

Reference: US20250228835A1, “PYRIDINYLOXYPYRIDINES AND RELATED COMPOUNDS AND THEIR USE IN TREATING MEDICAL CONDITIONS” (Rectify Pharmaceuticals, Inc., priority 2024, published 2025)
